The values that follow come from US4524066A, “Process for the preparation of injectable chondroitin polysulfate” (Luitpold-Werk Chemisch-pharmazeutische Fabrik, priority 1981, dated 1985).

In data set [1] the test system is humans.
Data set [2] has as its system NMRI mice. Briefly: Acute toxicity, NMRI mice, i.v. In kind it is in vivo.
Data set [3] concerns Cats. Briefly: Acute toxicity, cats, i.v. It counts as in vivo.
Data set [4] relates to Wistar rats. Briefly: Acute toxicity, Wistar rats, i.v. It counts as in vivo.
Data set [5] has as its system Dogs. The experiment in a line: Acute toxicity, dogs, i.v. In kind it is in vivo.

As for chondroitin polysulfate, the “therapeutic benefit of daily doses” value in data set [1] (daily doses of up to 500 mg) is “therapeutically advantageous”. For the same substance, the “therapeutic action in humans” value in data set [1] (single dosages 20-250 mg, in particular 30-150 mg, per individual in 0.2-2.0 ml) was “have a therapeutic action in humans”. Also, the LD50/7d in data set [2] is > 3,500 mg/kg; in data set [3], > 1,000 mg/kg; in data set [4], > 3,000 mg/kg; in data set [5], > 1,000 mg/kg.
